We go through five compounds from paper PMC2783503 (Journal of medicinal chemistry, 2009).

Read-outs that look alike come from different tables or passages of the source. Non-standard residues stand in square brackets, D forms with d. Residues, ends and D or L forms follow the SMILES beside them. Phe(2,6-Me2,4-CONH2) = Cc1cc(C(N)=O)cc(C)c1C[C@H](N)C(=O)O; Dmt = Cc1cc(O)cc(C)c1C[C@H](N)C(=O)O; Tic = O=C(O)[C@@H]1Cc2ccccc2CN1

The subject of assay [1] is μ opioid receptor. The assay is described as follows: GPI. Set-up: species or system guinea pig.
The target in assay [2] is T1, δ opioid receptor (Mus musculus, UniProt P32300). The assay is described as follows: MVD.
T1 sequence (P32300 whole entry): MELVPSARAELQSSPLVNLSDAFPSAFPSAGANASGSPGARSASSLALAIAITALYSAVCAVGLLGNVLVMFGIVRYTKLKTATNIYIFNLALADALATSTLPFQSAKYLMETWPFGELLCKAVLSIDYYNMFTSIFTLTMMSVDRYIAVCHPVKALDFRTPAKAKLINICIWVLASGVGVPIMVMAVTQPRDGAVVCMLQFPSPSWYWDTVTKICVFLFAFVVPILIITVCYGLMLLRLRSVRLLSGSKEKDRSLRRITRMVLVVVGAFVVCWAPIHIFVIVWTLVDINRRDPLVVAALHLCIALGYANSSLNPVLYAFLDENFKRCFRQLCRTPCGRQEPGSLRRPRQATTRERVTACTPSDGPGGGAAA
Assay [3] addresses T1, δ opioid receptor. The settings on record: δ antagonist activity; ref Schiller et al.[10]; cited from earlier work.
The next assay has as its target κ opioid receptor (UniProt P41144). The settings on record: read-out: Ki^κ; ref Schiller et al.[10]; cited from earlier work.
Assay [4] concerns the target μ opioid receptor (UniProt P33535). Conditions: read-out: Ki^μ; ref Schiller et al.[10]; cited from earlier work.
Assay [5] relates to μ opioid receptor. Conditions: result in words; ref Schiller et al.[10]; cited from earlier work.

μ opioid receptor (UniProt P33535), sequence (P33535 whole entry): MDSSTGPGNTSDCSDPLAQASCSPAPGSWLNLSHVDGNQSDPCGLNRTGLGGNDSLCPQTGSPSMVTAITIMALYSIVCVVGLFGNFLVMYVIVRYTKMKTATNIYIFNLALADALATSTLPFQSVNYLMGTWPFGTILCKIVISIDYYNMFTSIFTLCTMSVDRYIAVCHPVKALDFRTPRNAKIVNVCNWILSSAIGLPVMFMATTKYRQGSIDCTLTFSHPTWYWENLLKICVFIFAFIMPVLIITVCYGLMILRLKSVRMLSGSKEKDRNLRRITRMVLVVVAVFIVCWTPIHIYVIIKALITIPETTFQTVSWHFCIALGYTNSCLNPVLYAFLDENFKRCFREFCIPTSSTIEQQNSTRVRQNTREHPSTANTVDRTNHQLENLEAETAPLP
κ opioid receptor, sequence (P41144 whole entry): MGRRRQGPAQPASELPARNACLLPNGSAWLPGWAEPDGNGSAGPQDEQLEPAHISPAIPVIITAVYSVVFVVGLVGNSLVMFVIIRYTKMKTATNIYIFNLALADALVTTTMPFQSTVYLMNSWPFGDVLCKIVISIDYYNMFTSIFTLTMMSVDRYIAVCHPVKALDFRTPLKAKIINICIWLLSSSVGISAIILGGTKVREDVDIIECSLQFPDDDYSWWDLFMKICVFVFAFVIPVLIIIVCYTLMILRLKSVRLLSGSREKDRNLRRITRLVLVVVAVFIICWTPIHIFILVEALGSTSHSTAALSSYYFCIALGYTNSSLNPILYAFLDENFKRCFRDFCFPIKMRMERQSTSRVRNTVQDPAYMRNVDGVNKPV

Take `N[C@@H](Cc1ccc(O)cc1)C(=O)N1Cc2ccccc2C[C@H]1C(=O)O` [compound 9, H-Tyr-Tic-OH] (H-Tyr-[Tic]-OH): the GPI activity entry in the assay on μ opioid receptor [1] (result in words) is “inactive”. The Kb at δ opioid receptor [2] was 263 ± 40 nM.

As to `Cc1cc(C(N)=O)cc(C)c1C[C@H](N)C(=O)N1Cc2ccccc2C[C@H]1C(=O)N[C@@H](Cc1ccccc1)C(=O)N[C@@H](Cc1ccccc1)C(=O)O` [compound 12, H-Cdp-Tic-Phe-Phe-OH] (H-[Phe(2,6-Me2,4-CONH2)][Tic]FF-OH), the “GPI Ke^μ” value in the assay on μ opioid receptor [1] (μ antagonist activity) amounted to 3.07 ± 0.26 µM. In addition, the Kb at δ opioid receptor [2] stood at 0.627 ± 0.058 nM.

As to H-Y[Tic]FF-OH [compound 8], on δ opioid receptor [3], the “MVD Ke^δ” value is given as 4.80 ± 0.20 nM.

In the case of H-[Dmt]-[Tic]-OH [compound 11], the values for the inhibition constant (Ki) on κ opioid receptor and at μ opioid receptor [4] were above 1000 nM and 1360 ± 160 nM, respectively. In addition, the GPI activity entry with μ opioid receptor [5] was “inactive”.

For the compound H-[Dmt][Tic]FF-OH [compound 10], the “MVD Ke^δ” value at δ opioid receptor [3] is on record as 0.196 ± 0.035 nM.

One may read the Ki as the equilibrium dissociation constant of an inhibitor or competing ligand from its target.
